Source: the NIST ThermoML archive (doi:10.1021/je049671t)

Experiment: xn = mol fraction of the nth substance listed
Conditions: Liquid, Vibrating tube method

CCCC [butane] + CCC
Conditions	mass density [kg/m3]
300 K, 4513.8 kPa, x2 = 0.75	523.55
300 K, 4514.7 kPa, x2 = 0.5	543.88
300 K, 4953.2 kPa, x2 = 0.5	544.76
300 K, 5016.7 kPa, x2 = 0.75	524.69
300 K, 5031 kPa, x2 = 0.25	562.9
300 K, 5451.1 kPa, x2 = 0.25	563.65
300 K, 5474.7 kPa, x2 = 0.75	525.74
300 K, 5508.8 kPa, x2 = 0.5	545.86
300 K, 5929.8 kPa, x2 = 0.25	564.5
300 K, 5950 kPa, x2 = 0.75	526.78
300 K, 5953 kPa, x2 = 0.5	546.73
300 K, 6466.1 kPa, x2 = 0.5	547.72
300 K, 6473.6 kPa, x2 = 0.75	527.92
300 K, 6488.8 kPa, x2 = 0.25	565.48
300 K, 6959.9 kPa, x2 = 0.5	548.68
300 K, 7015.2 kPa, x2 = 0.75	529.08
300 K, 7074.7 kPa, x2 = 0.25	566.49
320 K, 997.4 kPa, x2 = 0.25	529.12
320 K, 1482.2 kPa, x2 = 0.25	530.41
320 K, 1496.3 kPa, x2 = 0.5	509.2
320 K, 1509.8 kPa, x2 = 0.75	484.66
320 K, 1996.7 kPa, x2 = 0.25	531.76
320 K, 2010.3 kPa, x2 = 0.5	510.79
320 K, 2020.7 kPa, x2 = 0.75	486.64
320 K, 2497.1 kPa, x2 = 0.75	488.41
320 K, 2502.8 kPa, x2 = 0.25	533.06
320 K, 2516.5 kPa, x2 = 0.5	512.32
320 K, 2999.8 kPa, x2 = 0.5	513.74
320 K, 3011.6 kPa, x2 = 0.75	490.26
320 K, 3012.6 kPa, x2 = 0.25	534.34
320 K, 3459.5 kPa, x2 = 0.75	491.82
320 K, 3509.2 kPa, x2 = 0.5	515.19
320 K, 3516.7 kPa, x2 = 0.25	535.58
320 K, 4012.1 kPa, x2 = 0.25	536.73
320 K, 4013.7 kPa, x2 = 0.75	493.68
320 K, 4017.1 kPa, x2 = 0.5	516.6
320 K, 4472 kPa, x2 = 0.25	537.8
320 K, 4497.4 kPa, x2 = 0.5	517.9
320 K, 4512.7 kPa, x2 = 0.75	495.29
320 K, 4988.6 kPa, x2 = 0.5	519.21
320 K, 4989.7 kPa, x2 = 0.25	539
320 K, 5019.1 kPa, x2 = 0.75	496.89
320 K, 5490.6 kPa, x2 = 0.5	520.51
320 K, 5501 kPa, x2 = 0.25	540.19
320 K, 5520.4 kPa, x2 = 0.75	498.43
320 K, 5989.8 kPa, x2 = 0.5	521.77
320 K, 6001.7 kPa, x2 = 0.75	499.85
320 K, 6013.9 kPa, x2 = 0.25	541.36
320 K, 6479.5 kPa, x2 = 0.5	522.98
320 K, 6522.9 kPa, x2 = 0.75	501.37
320 K, 6524.6 kPa, x2 = 0.25	542.42
320 K, 7003.8 kPa, x2 = 0.25	543.49
320 K, 7020.7 kPa, x2 = 0.75	502.78
320 K, 7116.4 kPa, x2 = 0.5	524.52
340 K, 1485.3 kPa, x2 = 0.25	500.98
340 K, 1990.9 kPa, x2 = 0.25	502.87
340 K, 1994.9 kPa, x2 = 0.75	448.06
340 K, 2013.6 kPa, x2 = 0.5	478.5
340 K, 2454.3 kPa, x2 = 0.25	504.54
340 K, 2508.8 kPa, x2 = 0.5	480.75
340 K, 2527.2 kPa, x2 = 0.75	451.44
340 K, 2997.6 kPa, x2 = 0.25	506.44
340 K, 3013.6 kPa, x2 = 0.5	482.96
340 K, 3018 kPa, x2 = 0.75	454.37
340 K, 3488 kPa, x2 = 0.25	508.09
340 K, 3515.5 kPa, x2 = 0.5	485.04
340 K, 3542.6 kPa, x2 = 0.75	457.27
340 K, 3984.5 kPa, x2 = 0.25	509.71
340 K, 4016.2 kPa, x2 = 0.5	487.04
340 K, 4021.6 kPa, x2 = 0.75	459.81
340 K, 4469.1 kPa, x2 = 0.75	462.01
340 K, 4496.8 kPa, x2 = 0.5	488.89
340 K, 4514.8 kPa, x2 = 0.25	511.39
340 K, 4981.8 kPa, x2 = 0.25	512.84
340 K, 4991.2 kPa, x2 = 0.75	464.48
340 K, 5012.2 kPa, x2 = 0.5	490.8
340 K, 5479.2 kPa, x2 = 0.25	514.33
340 K, 5511.6 kPa, x2 = 0.5	492.6
340 K, 5517 kPa, x2 = 0.75	466.87
340 K, 5958.5 kPa, x2 = 0.25	515.74
340 K, 5990.2 kPa, x2 = 0.75	468.91
340 K, 6031.2 kPa, x2 = 0.5	494.4
340 K, 6477.8 kPa, x2 = 0.25	517.22
340 K, 6495 kPa, x2 = 0.75	471.01
340 K, 6534.4 kPa, x2 = 0.5	496.09
340 K, 6953.2 kPa, x2 = 0.75	472.85
340 K, 6991.8 kPa, x2 = 0.25	518.67
340 K, 7014.4 kPa, x2 = 0.5	497.66
360 K, 1968.3 kPa, x2 = 0.25	468.3
360 K, 2483.2 kPa, x2 = 0.25	471.24
360 K, 2528 kPa, x2 = 0.5	441.58
360 K, 2981.1 kPa, x2 = 0.75	400.91
360 K, 3014.4 kPa, x2 = 0.5	445.35
360 K, 3030.5 kPa, x2 = 0.25	474.17
360 K, 3479.5 kPa, x2 = 0.25	476.45
360 K, 3504.1 kPa, x2 = 0.75	407.74
360 K, 3530.7 kPa, x2 = 0.5	449
360 K, 4004.6 kPa, x2 = 0.25	478.98
360 K, 4023.8 kPa, x2 = 0.5	452.26
360 K, 4034.2 kPa, x2 = 0.75	413.59
360 K, 4494.7 kPa, x2 = 0.25	481.23
360 K, 4499.5 kPa, x2 = 0.75	418.08
360 K, 4529.2 kPa, x2 = 0.5	455.37
360 K, 4959.4 kPa, x2 = 0.75	422.1
360 K, 5018.1 kPa, x2 = 0.25	483.52
360 K, 5025.4 kPa, x2 = 0.5	458.22
360 K, 5477.4 kPa, x2 = 0.75	426.13
360 K, 5492.3 kPa, x2 = 0.25	485.53
360 K, 5525 kPa, x2 = 0.5	460.95
360 K, 5965.8 kPa, x2 = 0.75	429.75
360 K, 5999.9 kPa, x2 = 0.25	487.58
360 K, 6017.8 kPa, x2 = 0.5	463.52
360 K, 6472.2 kPa, x2 = 0.25	489.44
360 K, 6494 kPa, x2 = 0.75	433.3
360 K, 6530.6 kPa, x2 = 0.5	466.12
360 K, 6960.2 kPa, x2 = 0.75	436.27
360 K, 6966.9 kPa, x2 = 0.25	491.3
360 K, 6972.7 kPa, x2 = 0.5	468.36
380 K, 2507.8 kPa, x2 = 0.25	426.44
380 K, 3006.4 kPa, x2 = 0.25	431.76
380 K, 3508.7 kPa, x2 = 0.25	436.48
380 K, 3523.1 kPa, x2 = 0.5	395.46
380 K, 3998.7 kPa, x2 = 0.25	440.67
380 K, 4001.1 kPa, x2 = 0.5	402.87
380 K, 4476.5 kPa, x2 = 0.5	409.03
380 K, 4501.1 kPa, x2 = 0.25	444.52
380 K, 4538.7 kPa, x2 = 0.75	349.07
380 K, 4998.7 kPa, x2 = 0.25	448.08
380 K, 5019 kPa, x2 = 0.5	415.08
380 K, 5025.3 kPa, x2 = 0.75	362.3
380 K, 5491.2 kPa, x2 = 0.75	371.58
380 K, 5494.5 kPa, x2 = 0.5	419.73
380 K, 5497.5 kPa, x2 = 0.25	451.38
380 K, 5962.5 kPa, x2 = 0.5	423.89
380 K, 5986.2 kPa, x2 = 0.75	379.48
380 K, 5995.5 kPa, x2 = 0.25	454.49
380 K, 6480.6 kPa, x2 = 0.5	428.09
380 K, 6502.4 kPa, x2 = 0.25	457.46
380 K, 6503.9 kPa, x2 = 0.75	386.32
380 K, 6897.6 kPa, x2 = 0.75	390.75
380 K, 6908.8 kPa, x2 = 0.5	431.3
380 K, 6952.8 kPa, x2 = 0.25	459.99

mass density [kg/m3]
Conditions	300 K	320 K	340 K	360 K	380 K
x2 = 0.25	554.07	528.42	499.52	466.36	424.79
x2 = 0.5	535.4	507.52	475.99	–	387.07
x2 = 0.75	514.2	483.71	447.59	398.44	–
